Common to all, as to details: Membrane
Test [1] has as its target Inositol 1,4,5-trisphosphate-gated calcium channel ITPR3 (Rattus norvegicus) (UniProt Q63269). Put plainly: Inositol 1,4,5-trisphosphate receptor activity by residual [3H]- IP3 binding to rat cerebellar membranes by the compound at logC = -5M.
Test [2] shares this target. The test is described as follows: Inositol 1,4,5-trisphosphate receptor activity by residual [3H]- IP3 binding to rat cerebellar membranes by the compound at logC = -9M.
Test [3] has the same target. The test is described as follows: Inositol 1,4,5-trisphosphate receptor activity by residual [3H]- IP3 binding to rat cerebellar membranes by the compound at logC = -8M.
The target is the same in test [4]. Put plainly: Inositol 1,4,5-trisphosphate receptor activity by residual [3H]- IP3 binding to rat cerebellar membranes by the compound at logC = -7M.
Test [5] shares this target. Put plainly: Inositol 1,4,5-trisphosphate receptor activity by residual [3H]- IP3 binding to rat cerebellar membranes by the compound at logC = -6M.

Chain of Inositol 1,4,5-trisphosphate-gated calcium channel ITPR3 (Rattus norvegicus) (Q63269 whole entry): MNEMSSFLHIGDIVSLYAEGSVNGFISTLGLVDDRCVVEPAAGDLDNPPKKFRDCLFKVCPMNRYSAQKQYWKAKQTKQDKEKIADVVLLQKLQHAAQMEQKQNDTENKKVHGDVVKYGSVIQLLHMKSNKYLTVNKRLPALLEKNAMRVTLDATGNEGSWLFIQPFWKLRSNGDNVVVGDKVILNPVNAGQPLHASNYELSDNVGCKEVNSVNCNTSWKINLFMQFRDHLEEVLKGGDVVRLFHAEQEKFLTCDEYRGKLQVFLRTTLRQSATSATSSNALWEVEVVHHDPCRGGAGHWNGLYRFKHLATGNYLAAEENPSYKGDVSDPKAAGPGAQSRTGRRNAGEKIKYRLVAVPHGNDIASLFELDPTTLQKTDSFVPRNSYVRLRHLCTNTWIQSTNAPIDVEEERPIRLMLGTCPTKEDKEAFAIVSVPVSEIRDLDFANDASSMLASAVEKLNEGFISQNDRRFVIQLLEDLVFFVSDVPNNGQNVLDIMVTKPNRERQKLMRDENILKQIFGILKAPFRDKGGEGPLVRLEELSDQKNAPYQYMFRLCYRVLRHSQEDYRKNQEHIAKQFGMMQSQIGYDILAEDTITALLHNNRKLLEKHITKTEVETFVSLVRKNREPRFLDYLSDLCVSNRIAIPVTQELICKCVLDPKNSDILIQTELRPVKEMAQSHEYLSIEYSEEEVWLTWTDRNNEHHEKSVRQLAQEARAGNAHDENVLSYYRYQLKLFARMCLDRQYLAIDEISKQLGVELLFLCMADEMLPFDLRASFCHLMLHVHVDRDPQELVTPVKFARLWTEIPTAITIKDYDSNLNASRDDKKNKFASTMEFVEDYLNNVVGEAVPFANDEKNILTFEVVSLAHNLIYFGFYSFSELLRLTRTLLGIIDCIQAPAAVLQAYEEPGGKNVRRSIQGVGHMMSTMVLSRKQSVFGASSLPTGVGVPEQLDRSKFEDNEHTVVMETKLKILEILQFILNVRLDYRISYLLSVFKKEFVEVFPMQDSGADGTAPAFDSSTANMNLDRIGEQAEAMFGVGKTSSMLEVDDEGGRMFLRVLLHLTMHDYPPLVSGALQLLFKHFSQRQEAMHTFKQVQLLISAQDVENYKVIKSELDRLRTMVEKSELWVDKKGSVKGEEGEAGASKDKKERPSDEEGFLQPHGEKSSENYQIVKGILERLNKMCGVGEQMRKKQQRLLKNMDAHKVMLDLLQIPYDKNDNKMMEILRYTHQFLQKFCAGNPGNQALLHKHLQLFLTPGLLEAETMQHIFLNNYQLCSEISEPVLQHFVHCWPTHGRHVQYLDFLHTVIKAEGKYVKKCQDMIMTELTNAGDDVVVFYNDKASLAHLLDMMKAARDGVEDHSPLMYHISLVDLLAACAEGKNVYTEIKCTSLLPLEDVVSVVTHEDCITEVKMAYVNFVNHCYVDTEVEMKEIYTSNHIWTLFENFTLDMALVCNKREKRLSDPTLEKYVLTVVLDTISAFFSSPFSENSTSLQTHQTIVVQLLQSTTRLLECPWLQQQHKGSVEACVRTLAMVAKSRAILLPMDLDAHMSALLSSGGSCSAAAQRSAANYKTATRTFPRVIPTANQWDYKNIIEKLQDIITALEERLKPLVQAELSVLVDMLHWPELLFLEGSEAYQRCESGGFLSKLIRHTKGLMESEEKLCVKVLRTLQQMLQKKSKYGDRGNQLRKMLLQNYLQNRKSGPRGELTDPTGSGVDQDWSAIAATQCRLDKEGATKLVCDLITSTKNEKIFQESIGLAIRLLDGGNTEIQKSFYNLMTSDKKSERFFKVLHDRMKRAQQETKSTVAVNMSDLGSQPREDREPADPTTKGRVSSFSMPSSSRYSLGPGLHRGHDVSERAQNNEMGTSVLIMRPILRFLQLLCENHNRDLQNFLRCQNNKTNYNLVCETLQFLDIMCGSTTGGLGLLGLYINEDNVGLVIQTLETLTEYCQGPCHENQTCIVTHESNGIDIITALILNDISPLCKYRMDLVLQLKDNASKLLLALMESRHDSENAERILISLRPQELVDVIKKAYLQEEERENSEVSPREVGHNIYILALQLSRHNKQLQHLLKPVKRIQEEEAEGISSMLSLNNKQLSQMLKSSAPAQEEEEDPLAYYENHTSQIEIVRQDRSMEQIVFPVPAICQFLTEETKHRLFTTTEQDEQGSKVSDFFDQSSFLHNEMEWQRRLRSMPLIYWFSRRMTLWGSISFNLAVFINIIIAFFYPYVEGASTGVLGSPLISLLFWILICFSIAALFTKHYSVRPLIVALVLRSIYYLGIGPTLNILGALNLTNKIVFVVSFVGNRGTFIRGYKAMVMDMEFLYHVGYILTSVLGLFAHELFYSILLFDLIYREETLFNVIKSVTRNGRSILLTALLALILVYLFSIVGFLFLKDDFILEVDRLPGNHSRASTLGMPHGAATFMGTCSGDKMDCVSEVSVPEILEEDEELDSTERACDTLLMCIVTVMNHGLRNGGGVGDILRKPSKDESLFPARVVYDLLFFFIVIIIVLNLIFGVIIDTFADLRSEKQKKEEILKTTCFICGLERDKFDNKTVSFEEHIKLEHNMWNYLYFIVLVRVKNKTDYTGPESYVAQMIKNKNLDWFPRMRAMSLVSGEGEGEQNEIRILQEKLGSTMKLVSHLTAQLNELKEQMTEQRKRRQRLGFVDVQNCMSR

As usually defined, the residual activity is the signal under treatment as a percentage of the control signal. Consider `O=P(O)(O)O[C@@H]1[C@H](O)[C@@H](O)[C@@H](OP(=O)(O)O)[C@H](OP(=O)(O)O)[C@H]1O`, for which the residual activity amounted to 5% in test [1]; 95% in test [2]; 70% in test [3]; 20% in test [4]; 5% in test [5].
For `O=P(O)(O)O[C@@H]1[C@@H](O)[C@H](OP(=O)(O)O)[C@H](O)C[C@@H]1OP(=O)(O)O`, the residual activity was 40% in test [1]; 100% in test [2]; 110% in test [3]; 100% in test [4]; 80% in test [5].
With `O=P(O)(O)O[C@@H]1[C@@H](O)[C@H](OP(=O)(O)O)[C@H](O)C[C@H]1OP(=O)(O)O`, the residual activity in test [3] came to 100%; in test [4], 50%; in test [5], 20%.

Values taken from ChEMBL document CHEMBL1128623, “Influence of the absolute configuration at C-4 in the binding of d-myoinositol 1,4,5 trisphosphate analogues to IP3 receptor” (Bioorg Med Chem Lett, 1995).
